According to US10369123B2, “Perk activator for the treatment of neurodegenerative diseases” (DEUTSCHES ZENTRUM FÜR NEURODEGENERATIVE ERKRANKUNGEN E.V. …, priority 2014, dated 2019):
Entries after “also recorded” stand apart in the source; their conditions may differ.

Experiments:
LUHMES neurons = assay: MTT assay, annonacin-treated LUHMES neurons; assay type: cell-based, human; conditions: annonacin + PERK activator 200 nM or PERK inhibitor 300 nM, 48 h, vs no PERK modulator
Experimental: (§1) Nunc™ Nunclon™ Delta 6-well (for protein and mRNA) or 48-well (for cell assays) plates (Thermo Fisher Scientific, Waltham, Mass., USA) were coated with 100 μg/ml poly-L-lysine (Sigma-Aldrich, St. Louis, Mo., USA) and 5 μg/ml fibronectin (Sigma-Aldrich). LUHMES (Lund Human Mesencephalic) cells, derived from human embryonic ventral mesencephalic cells by conditional immortalization (Tet-off v-myc over-expression) were seeded out in a concentration of 130,000 cells/cm^2 to achieve a confluence of 50%. They were then differentiated for 8 days in a medium of DMEM/F12 (Sigma-Aldrich), 1 μg/ml tetracycline, […] and 490 μg/ml dbcAMP into post-mitotic neurons with a dopaminergic phenotype (Lotharius et al. 2005).
For all experiments with annonacin, the medium was replaced during the intoxication period with new medium containing glucose levels reduced to 250 μM, i.e. the physiological concentration in the human brain.
Thiazolyl Blue Tetrazolium […] (MTT) (Sigma Aldrich) was dissolved in sterile PBS to a concentration of 5 mg/ml. This stock solution was added to the cells in culture medium to achieve a final concentration of 0.5 mg/ml. The 48-well culture plate was then incubated at 37° C. for 1 h, the medium removed completely and frozen at −80° C. for 1 h. The plate was then thawed, 300 μl DMSO (AppliChem, Darmstadt, Germany) was added per well and the plate was shaken to ensure complete dissolution of the violet crystals. 100 μl from each well were transferred to a new 96-well plate and the absorbance was read with the FLUOstar Omega (BMG Labtech) platereader at a wavelength of 590 nm (reference wave length 630 nm). The data was analyzed using the MARS Data Analysis Software (BMG Labtech) and Prism 6.

PERK = target: T1, PERK (Homo sapiens, UniProt Q9NZJ5); assay: Western blot for pEIF2A and pNRF2, annonacin model of tauopathy; assay type: cell-based; parameters: endogenous in cells; host or cells: LUHMES neurons (differentiated, human); in A5 transduced with lentivirus for 3R-/4R-tau or mCherry, not for PERK; conditions: in the presence of 25 nM annonacin, 48 h
T1 sequence (Q9NZJ5 30-1116): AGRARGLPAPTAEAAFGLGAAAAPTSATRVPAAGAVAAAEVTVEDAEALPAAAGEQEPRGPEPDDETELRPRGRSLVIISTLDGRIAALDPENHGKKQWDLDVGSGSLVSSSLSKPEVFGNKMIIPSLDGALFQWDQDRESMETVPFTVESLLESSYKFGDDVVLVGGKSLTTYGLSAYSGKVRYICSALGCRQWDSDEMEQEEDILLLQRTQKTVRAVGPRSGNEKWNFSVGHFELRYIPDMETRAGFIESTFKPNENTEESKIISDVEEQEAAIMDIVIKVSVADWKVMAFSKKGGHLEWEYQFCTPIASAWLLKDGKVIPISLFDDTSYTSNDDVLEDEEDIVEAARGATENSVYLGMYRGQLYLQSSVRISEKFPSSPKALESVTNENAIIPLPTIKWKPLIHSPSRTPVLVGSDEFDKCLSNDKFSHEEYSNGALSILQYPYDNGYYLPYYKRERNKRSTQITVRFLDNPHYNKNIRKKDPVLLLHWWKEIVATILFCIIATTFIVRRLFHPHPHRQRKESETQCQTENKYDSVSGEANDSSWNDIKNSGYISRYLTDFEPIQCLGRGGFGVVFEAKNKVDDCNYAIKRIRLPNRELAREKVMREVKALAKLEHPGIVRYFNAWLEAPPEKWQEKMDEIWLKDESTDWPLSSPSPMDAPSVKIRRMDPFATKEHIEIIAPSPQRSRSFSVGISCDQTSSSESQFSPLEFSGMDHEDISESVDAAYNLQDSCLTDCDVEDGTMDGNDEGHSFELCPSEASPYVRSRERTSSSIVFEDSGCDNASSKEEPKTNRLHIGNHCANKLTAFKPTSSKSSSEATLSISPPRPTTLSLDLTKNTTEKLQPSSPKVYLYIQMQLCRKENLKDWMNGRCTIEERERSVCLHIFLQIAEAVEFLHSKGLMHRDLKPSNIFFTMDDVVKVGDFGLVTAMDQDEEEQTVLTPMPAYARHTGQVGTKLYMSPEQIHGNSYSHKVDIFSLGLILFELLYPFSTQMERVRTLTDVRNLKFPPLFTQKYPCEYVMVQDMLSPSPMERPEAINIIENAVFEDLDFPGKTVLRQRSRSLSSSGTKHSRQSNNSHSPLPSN
Experimental: as §1, with “2005). […]” for “2005).”
Protein was extracted by scraping the cells from the culture plate with Mammalian Protein Extraction Reagent (M-PER, Thermo Fisher Scientific) and 1× cOmplete Protease Inhibitor Cocktail Tablets (Hoffmann-La Roche, Basel, Switzerland) and 1× PhosSTOP Phosphatase Inhibitor Cocktail Tablets (Hoffmann-La Roche). […] Protein concentrations were determined using the BCA kit (Thermo Fisher Scientific) by heating the samples at 60° C. for 30 min and measuring the absorption on the NanoDrop 2000c Spectrophotometer (Thermo Fisher Scientific). […]

Cn1cc(-c2ccc3c(c2)CCN3C(=O)Cc2cccc(C(F)(F)F)c2)c2c(N)ncnc21 [GSK2606414, reference compound]
MTT test, effect of co-treatment (LUHMES neurons): did not significantly improve; also recorded: never significant | pEIF2A level (PERK; PERK inhibitor 300 nM): reduced pEIF2A levels significantly

CCN(CC)CCC(=O)N1N=C(c2c(-c3ccccc3)c3cc(Br)ccc3[nH]c2=O)CC1c1ccc(Br)cc1 (stereo not shown) [CCT020312, 6-bromo-3-[5-(4-bromo-phenyl)-1-(3-diethylamino-propionyl)-4,5-dihydro-1H-pyrazol-3-yl]-4-phenyl-1H-quinolin-2-one]
MTT test, effect of co-treatment (LUHMES neurons): significant improvement | pNRF2 level (PERK; PERK activator 200 nM): increased only pNRF2 significantly
